Test results taken from the supplement of paper PMC10307832.

Tests used:
Test in all cases: relative viability (nuclei count vs DMSO), 5 days (fraction); higher = more cells survive
[1] = compound: C1CSC2=C(C(=O)N1)SC3=C2C=C(C=C3)O [kb NB 142-70] + CS(=O)(=O)N1CCN(Cc2cc3nc(-c4cccc5[nH]ncc45)nc(N4CCOCC4)c3s2)CC1 [Pictilisib] (partner 1 µM)
Method in brief: (§1)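 Each reported value is a median over duplicate plates. It expresses relative viability: treated-well nuclei count divided by vehicle-well nuclei count. Lung cancer cell lines in 1536-well plates were dosed by pin tool a day after seeding, alone with one drug or with a fixed anchor-drug dose plus five library-drug doses (not always all listed) in √10 steps, and nuclei were counted after 5 days.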

[2] = compound: C1CSC2=C(C(=O)N1)SC3=C2C=C(C=C3)O [kb NB 142-70] + CC(=O)c1c(C)c2cnc(Nc3ccc(N4CCNCC4)cn3)nc2n(C2CCCC2)c1=O [Palbociclib] (partner 0.5 µM)
Method in brief: as §1

[3] = compound: NCC(=O)Nc1ccc(-n2nc(C(F)(F)F)cc2-c2ccc3c(ccc4ccccc43)c2)cc1 + CC(=O)Nc1cccc(-n2c(=O)n(C3CC3)c(=O)c3c(Nc4ccc(I)cc4F)n(C)c(=O)c(C)c32)c1 [Trametinib] (partner 0.02 µM)
Method in brief: as §1

[4] = compound: NCC(=O)Nc1ccc(-n2nc(C(F)(F)F)cc2-c2ccc3c(ccc4ccccc43)c2)cc1 + C[C@@H](Oc1cc(-c2cnn(C3CCNCC3)c2)cnc1N)c1c(Cl)ccc(F)c1Cl [Crizotinib] (partner 1 µM)
Method in brief: as §1

[5] = compound: C1CSC2=C(C(=O)N1)SC3=C2C=C(C=C3)O [kb NB 142-70] + Nc1ncn([C@H]2C[C@H](O)[C@@H](CO)O2)c(=O)n1 [Decitabine] (partner 2 µM)
Method in brief: as §1

Which relative viability ([1]; first compound 0.1 µM) does the source give for UMC-11 here?
Its relative viability is 0.83.

What about the relative viability ([1]; first compound 1 µM) of the same cell line?
The relative viability was 0.719.

What about the relative viability ([1]; first compound 3.162 µM) of the same cell line?
Its relative viability is 0.44.

What about the relative viability ([2]; first compound 0.1 µM) of the same cell line?
The relative viability was 0.322.

And the relative viability ([2]; first compound 1 µM)?
Its relative viability is 0.344.

And the relative viability ([2]; first compound 3.162 µM)?
The relative viability was 0.324.

And the relative viability ([3]; first compound 0.02 µM)?
Its relative viability is 0.645.

What about the relative viability ([3]; first compound 0.06325 µM) of the same cell line?
The relative viability was 0.85.

And the relative viability ([3]; first compound 0.2 µM)?
Its relative viability is 0.751.

What about the relative viability ([3]; first compound 0.6325 µM) of the same cell line?
Its relative viability is 0.773.

And the relative viability ([3]; first compound 2 µM)?
Its relative viability is 0.747.

And the relative viability ([4]; first compound 0.02 µM)?
The relative viability was 0.728.

And the relative viability ([4]; first compound 0.06325 µM)?
The relative viability was 0.638.

And the relative viability ([4]; first compound 0.2 µM)?
Its relative viability is 0.622.

What about the relative viability ([4]; first compound 0.6325 µM) of the same cell line?
The relative viability was 0.604.

And the relative viability ([4]; first compound 2 µM)?
The relative viability was 0.567.

And the relative viability ([5]; first compound 0.1 µM)?
The relative viability was 0.547.

And the relative viability ([5]; first compound 1 µM)?
The relative viability was 0.639.

And the relative viability ([5]; first compound 3.162 µM)?
The relative viability was 0.378.
